Test results from US11999727B2 (Tango Therapeutics, Inc., priority 2020, dated 2024).
Read-outs that look alike come from different tables or passages of the source.

Columns and labels:
PRMT5 [1] = biological target: T1, PRMT5 (Homo sapiens, UniProt O14744); experiment: PRMT5 biochemical IC50 assay with SAM as cofactor; conditions: PRMT5, SAM as cofactor; read-out: SAM IC50
T1 construct: purchased Viva (custom protein)

PRMT5 [2] = biological target: T1, PRMT5; experiment: PRMT5 biochemical IC50 assay with MTA as cofactor; conditions: PRMT5, MTA as cofactor; read-out: MTA IC50
[3] = system: HAP1 MTAP-intact cell line; experiment: SDMA in-cell western assay, HAP1 MTAP-intact; assay type: cell-based; conditions: HAP1 MTAP-intact, read-out: MTAP HAP1 intact IC50
Outline: (§1)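 Isogenic HAP1 pair: the MTAP-intact line expresses endogenous MTAP, and the deleted line is MTAP-null. Symmetric dimethylarginine was detected by in-cell western and IC50 values derived for each line.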

[4] = system: HAP1 MTAP-deleted cell line; experiment: Viability assay, MTAP-deleted cell line; assay type: cell-based; conditions: read-out: HAP1 MTAP deleted viability
From the text: Table 1 additionally indicates IC50 values in a viability assay for the MTAP-deleted cell line (column 10), indicating the effect of treatment with compound on cell survival.

PRMT5 [5] = biological target: T1, PRMT5; experiment: PRMT5 biochemical IC50 assay with no cofactor; conditions: PRMT5, no cofactor
From the text: Table 1 indicates IC50 values (μM) against PRMT5 for exemplary compounds in the presence of SAM as cofactor, with no cofactor, and with MTA as cofactor, respectively (columns 4-6). […] Ki values can be calculated from the IC50 values as described in the Examples section. As detailed in the Examples section, for the assay performed in the presence of SAM, IC50=Ki×1.5 (Ki=IC50/1.5).

[6] = system: HAP1 MTAP-deleted cell line; experiment: SDMA in-cell western assay, HAP1 MTAP-deleted; assay type: cell-based; conditions: for IC50: HAP1 MTAP-deleted
Outline: as §1

[7] = read-out: No Cofactor/ rel IC50
[8] = IC50 ratio HAP1 MTAP-intact / HAP1 MTAP-deleted, SDMA in-cell western
[9] = Homo sapiens, HAP1, SDMA in-cell western
[10] = Homo sapiens, HAP1, viability assay, MTAP-deleted cell line
[11] = Homo sapiens, HAP1, SDMA in-cell western, read-out: HAP1 MTAP deleted IC50
[12] = Homo sapiens, HAP1, SDMA in-cell western, read-out: HAP 1 MTAP deleted IC50
[13] = Homo sapiens, HAP1, viability IC50, MTAP-deleted cell line
[14] = Homo sapiens, HAP1, viability assay, HAP1 MTAP-deleted
[15] = IC50 ratio HAP1 MTAP-intact vs HAP1 MTAP-deleted, SDMA in-cell western

T1 sequence (O14744 whole entry): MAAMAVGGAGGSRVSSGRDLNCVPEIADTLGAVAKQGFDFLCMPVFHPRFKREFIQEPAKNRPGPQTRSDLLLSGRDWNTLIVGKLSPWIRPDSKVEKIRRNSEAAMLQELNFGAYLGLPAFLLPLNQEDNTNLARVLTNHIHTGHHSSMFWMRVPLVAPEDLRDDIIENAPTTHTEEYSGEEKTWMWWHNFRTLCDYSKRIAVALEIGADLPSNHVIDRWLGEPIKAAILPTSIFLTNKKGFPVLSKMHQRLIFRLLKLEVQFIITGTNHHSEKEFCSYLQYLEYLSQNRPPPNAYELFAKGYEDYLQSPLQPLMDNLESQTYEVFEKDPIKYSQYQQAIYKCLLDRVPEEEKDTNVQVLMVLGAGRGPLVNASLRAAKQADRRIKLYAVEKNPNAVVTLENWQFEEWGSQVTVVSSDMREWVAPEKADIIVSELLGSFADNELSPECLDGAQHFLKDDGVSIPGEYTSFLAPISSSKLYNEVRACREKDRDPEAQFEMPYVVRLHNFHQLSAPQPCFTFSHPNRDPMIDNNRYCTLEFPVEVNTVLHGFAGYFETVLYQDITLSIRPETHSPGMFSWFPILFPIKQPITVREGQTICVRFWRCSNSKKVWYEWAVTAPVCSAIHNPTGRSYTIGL
T1 sequence (Q9BQA1 whole entry partner): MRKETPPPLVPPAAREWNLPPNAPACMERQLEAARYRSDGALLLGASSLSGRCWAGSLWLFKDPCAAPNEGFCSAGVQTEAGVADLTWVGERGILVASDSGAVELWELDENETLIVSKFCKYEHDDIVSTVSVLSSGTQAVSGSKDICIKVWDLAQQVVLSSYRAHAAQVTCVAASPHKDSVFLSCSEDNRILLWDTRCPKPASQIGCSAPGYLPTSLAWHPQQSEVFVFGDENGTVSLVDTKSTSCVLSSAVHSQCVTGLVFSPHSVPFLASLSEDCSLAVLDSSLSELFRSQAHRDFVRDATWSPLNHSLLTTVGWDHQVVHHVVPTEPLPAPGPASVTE

| IC50 (PRMT5 [1]) [nM] | IC50 (PRMT5 [2]) [nM] | IC50 ([3]; SDMA in-cell western) [nM] | IC50 (PRMT5 [5]; [7]) [nM] | IC50 ([6]; SDMA in-cell western, read-out: HAP 1 MTAP deleted IC50) [nM] | IC50 [3, 9] [nM] | IC50 (PRMT5 [5]; read-out: No Cofactor/rel IC50) [nM] | IC50 [6, 11] [nM] | IC50 [6, 12] [nM] | IC50 ([6]; SDMA in-cell western, read-out: HAP1 MTAP deleted IC50) [nM] | SMILES | IC50 ([4]; viability assay, MTAP-deleted cell line) [nM] | MTAP intact/deleted ratio [6, 8] | IC50 [4, 10] [nM] | IC50 [4, 13] [nM] | IC50 [4, 14] [nM] | MTAP intact/deleted ratio [6, 15] |
| --- | --- | --- | --- | --- | --- | --- | --- | --- | --- | --- | --- | --- | --- | --- | --- | --- |
| > 500 | > 500 | > 1000 | > 500 | > 1000 |  |  |  |  |  | Cc1cc(NC(=O)C(=O)N2CC(C)(C)CCC2c2ccccc2)cnc1N (single isomer, unassigned) [Compound 58, N-(6-amino-5-methylpyridin-3-yl)-2-(5,5-dimethyl-2-phenylpiperidin-1-yl)-2-oxoacetamide] | > 10000 | C (an IC50 ratio of less than 3 fold) |  |  |  |  |
| > 500 | 50 to 500 |  |  |  | > 1000 | > 500 | > 1000 |  |  | C[C@@H]1CC[C@@H]([C@@H]2CCC(O)C2)N(C(=O)C(=O)Nc2cncc(C(N)=O)c2)C1 (mixture of isomers) [Compound 517, 5-[[2-[(2S,5R)-2-(3-Hydroxycyclopentyl)-5-methyl-1-piperidyl]-2-oxo-acetyl]amino]pyridine-3-carboxamide] |  | C (an IC50 ratio of less than 3 fold) | > 10000 |  |  |  |
| 50 to 500 | < 50 |  | 50 to 500 |  | > 1000 |  |  | 100 to 1000 |  | C[C@@H]1CC[C@@H](c2cccnc2)N(C(=O)C(=O)Nc2cncc(C(N)=O)c2)C1 (racemic) [Compound 102, 5-[[2-[5-methyl-2-(3-pyridyl)-1-piperidyl]-2-oxo-acetyl]amino]pyridine-3-carboxamide] |  | A (an IC50 ratio greater than or equal to 10 fold) | > 10000 |  |  |  |
| 50 to 500 | 50 to 500 |  |  |  | > 1000 | 50 to 500 |  | < 100 |  | CCc1cc([C@@H]2CC[C@@H](C)CN2C(=O)C(=O)Nc2cncc(C(N)=O)c2)ccc1O (racemic) [Compound 642, 5-[[2-[(2R,5S)-2-(3-Ethyl-4-hydroxy-phenyl)-5-methyl-1-piperidyl]-2-oxo-acetyl]amino]pyridine-3-carboxamide] |  | A (an IC50 ratio greater than or equal to 10 fold) |  | < 1000 |  |  |
| 50 to 500 | < 50 |  |  |  | > 1000 | 50 to 500 |  | < 100 |  | COc1ncc(NC(=O)C(=O)N2C[C@H](C)CC[C@H]2c2cscn2)cc1C(N)=O (single isomer, unassigned) [Compound 1042] |  | A (an IC50 ratio greater than or equal to 10 fold) | 1000 to 10000 |  |  |  |
| > 500 | 50 to 500 |  | > 500 |  | > 1000 |  |  | 100 to 1000 |  | CC1(C)CCC(c2ccccc2)N(C(=O)C(=O)Nc2cncc(C(N)=O)c2)C1 (centres unmarked) [Compound 45, 5-(2-(5,5-dimethyl-2-phenylpiperidin-1-yl)-2-oxoacetamido)nicotinamide] |  | A (an IC50 ratio greater than or equal to 10 fold) | > 10000 |  |  |  |
| 50 to 500 | < 50 |  |  |  | 100 to 1000 | < 50 | < 100 |  |  | COc1ncc(NC(=O)C(=O)N2C[C@@H](C)CC[C@@H]2c2ccc3c(c2)CC(=O)N3)cc1C(N)=O (single isomer, unassigned) [Compound 454] |  | A (an IC50 ratio greater than or equal to 10 fold) | < 1000 |  |  |  |
| 50 to 500 | 50 to 500 |  |  |  | > 1000 | 50 to 500 | 100 to 1000 |  |  | Cc1cc(NC(=O)C(=O)N2CC[C@@H](C(=O)C(C)C)C[C@H]2c2ccc3c(c2)CCC(=O)N3)cnc1N (racemic) [Compound 853, N-(6-amino-5-methyl-3-pyridyl)-2-[(2S,4R)-4-(2-methylpropanoyl)-2-(2-oxo-3,4-dihydro-1H-quinolin-6-yl)-1-piperidyl]-2-oxo-acetamide] |  | A (an IC50 ratio greater than or equal to 10 fold) |  |  | 1000 to 10000 |  |
| < 50 | < 50 |  |  |  | < 100 | < 50 | < 100 |  |  | Cc1cc(NC(=O)C(=O)N2C[C@H](C)CC[C@H]2c2ccc3c(cnn3CCN(C)C)c2)cnc1N (single isomer, unassigned) [Compound 1182] |  |  | < 1000 |  |  | B (an IC50 ratio greater than or equal to 3 fold but lower than 10 fold) |
| 50 to 500 | < 50 |  |  |  | < 100 | < 50 | < 100 |  |  | CCc1cc(NC(=O)C(=O)N2C[C@@H](C)CC[C@@H]2c2ccc3sc(C4CCN(C5COC5)CC4)nc3c2)cnc1N [Compound 1224, N-(6-amino-5-ethylpyridin-3-yl)-2-((2R,53)-5-methyl-2-(2-(1-(oxetan-3-yl)piperidin-4-yl)benzo[d]thiazol-5-yl)piperidin-1-yl)-2-oxoacetamide] |  |  | < 1000 |  |  | A (an IC50 ratio greater than or equal to 10 fold) |
| > 500 | > 500 |  |  |  | > 1000 | > 500 |  |  | > 1000 | [H][C@]1([C@]2([H])C[C@]3(C[C@H](O)C3)C2)CC[C@H](C)CN1C(=O)C(=O)Nc1cnc(N)c(C)c1 (single isomer, unassigned) [Compound 766] |  | C (an IC50 ratio of less than 3 fold) |  |  | > 10000 |  |
| 50 to 500 | < 50 |  |  |  | 100 to 1000 | 50 to 500 |  | 100 to 1000 |  | CNS(=O)(=O)c1ccc([C@@H]2CC[C@@H](C)CN2C(=O)C(=O)Nc2cnc(N)c(C)c2)cc1 (racemic) [Compound 668, N-(6-amino-5-methyl-3-pyridyl)-2-[(2S,5R)-5-methyl-2-[4-(methylsulfamoyl)phenyl]-1-piperidyl]-2-oxo-acetamide] |  | B (an IC50 ratio greater than or equal to 3 fold but lower than 10 fold) |  | 1000 to 10000 |  |  |
| 50 to 500 | 50 to 500 |  |  |  | > 1000 | > 500 | > 1000 |  |  | CC1(C)CCC[C@H]2CN(C(=O)C(=O)Nc3cncc(C(N)=O)c3)CC[C@@H]21 (single isomer, unassigned) [Compound 197] |  | C (an IC50 ratio of less than 3 fold) | > 10000 |  |  |  |
| > 500 | 50 to 500 |  |  |  | > 1000 | > 500 | > 1000 |  |  | Cc1cc(NC(=O)C(=O)N2C[C@H](C)CC[C@@H]2C2CCCCC2)cnc1N (racemic) [Compound 175, N-(6-amino-5-methyl-3-pyridyl)-2-[(2R,5R)-2-cyclohexyl-5-methyl-1-piperidyl]-2-oxo-acetamide] |  | B (an IC50 ratio greater than or equal to 3 fold but lower than 10 fold) | > 10000 |  |  |  |
| > 500 | 50 to 500 |  |  |  | > 1000 | > 500 | > 1000 |  |  | NC(=O)c1cncc(NC(=O)C(=O)N2CCC3(CC2)CCS(=O)(=O)CC3)c1 [Compound 195, 5-(2-(3,3-Dioxido-3-thia-9-azaspiro[5.5]undecan-9-yl)-2-oxoacetamido)nicotinamide] |  | C (an IC50 ratio of less than 3 fold) | > 10000 |  |  |  |
| < 50 | < 50 |  |  |  | < 100 | < 50 | < 100 |  |  | Cc1cc(NC(=O)C(=O)N2C[C@@H](C)CC[C@@H]2c2ccc3sc(C4CCN(C)CC4)cc3c2)cnc1N [Compound 1220, N-(6-amino-5-methyl-3-pyridyl)-2-[(2R,5S)-5-methyl-2-[2-(1-methyl-4-piperidyl)benzothiophen-5-yl]-1-piperidyl]-2-oxo-acetamide] |  |  | < 1000 |  |  | B (an IC50 ratio greater than or equal to 3 fold but lower than 10 fold) |
| < 50 | < 50 |  |  |  | 100 to 1000 | < 50 | < 100 |  |  | C[C@H]1CC[C@H](c2ccc3sc(C4CCN(C)CC4)nc3c2)N(C(=O)C(=O)Nc2cnc(N)c(C(F)(F)F)c2)C1 [Compound 1117, N-(6-amino-5-(trifluoromethyl)pyridin-3-yl)-2-((2R,5S)-5-methyl-2-(2-(1-methylpiperidin-4-yl)benzo[d]thiazol-5-yl)piperidin-1-yl)-2-oxoacetamide] |  |  | < 1000 |  |  | A (an IC50 ratio greater than or equal to 10 fold) |
